We go through 22 compounds from patent US20230287003A1, “BCL6 INHIBITORS” (Cancer Research Technology Limited, priority 2018, published 2023).

This assay has as its target human BCL6 BTB domain (Trx-6×His-BCL6) / BCOR-AF633 peptide (Homo sapiens (Human), UniProt P41182). Briefly: HTRF assay. Format: binding.
Where [1] appears, read: 1 nM Trx-6×His-BCL6, 300 nM BCOR-AF633 peptide, 2 hours incubation.
Setting [2] is: HTRF avg pIC50 (1 nM), 1 nM Trx-6×His-BCL6, 300 nM BCOR-AF633 peptide, 2 hours incubation.
Where [3] appears, read: read-out: IC50 in the HTRF assay.

Read-outs that look alike come from different tables or passages of the source.

Protocol: The % inhibition at each concentration was calculated by normalising FRET ratio to the appropriate high (DMSO with all reagents) and low (DMSO without BCL6) controls.

As for `CN1CC2(C1)CN(c1ncc(Cl)c(Nc3ccc4c(c3)c3c(c(=O)n4C)OCC(F)(F)[C@H](C4CC4)N3)n1)C2` [Example 13g, (S)-10-((5-chloro-2-(6-methyl-2,6-diazaspiro[3.3]heptan-2-yl)pyrimidin-4-yl)amino)-2-cyclopropyl-3,3-difluoro-7-methyl-1,2,3,4-tetrahydro-[1,4]oxazepino[2,3-c]quinolin-6(7H)-one: formic acid (1:2)], the “HTRF avg pIC50 (1 nM)” value under setting [1] was 8.50.

Turning to “(R)-10-((5-chloro-2-((R)-4,4-difluoro-3- methylpiperidin-1-yl)pyrimidin-4-yl)amino)-2-cyclopropyl-7- methyl-1,2,3,4-tetrahydro-[1,4]oxazepino[2,3-c]quinolin- 6(7H)-one or (R)-10-((5-chloro-2-((S)-4,4-difluoro-3- methylpiperidin-1-yl)pyrimidin-4-yl)amino)-2-cyclopropyl- 7-methyl-1,2,3,4-tetrahydro-[1,4]oxazepino[2,3-c]quinolin- 6(7H)-one [Example 14b]”, the “HTRF avg pIC50 (1 nM)” value under setting [1] was 6.98. On the same count and under the same terms, then `Cn1c(=O)c2c(c3cc(Nc4ccncc4Cl)ccc31)N[C@@H](C1CC1)C(F)(F)CO2` [Example 4d, (S)-10-((3-chloropyridin-4-yl)amino)-2-cyclopropyl-3,3-difluoro-7-methyl-1,2,3,4-tetrahydro-[1,4]oxazepino[2,3-c] quinolin-6(7H)-one], with 7.99; and “(R)-10-((5-chloro-2-((S)-4,4-difluoro-3- (hydroxymethyl)piperidin-1-yl)pyrimidin-4-yl)amino)-2- cyclopropyl-7-methyl-1,2,3,4-tetrahydro- [1,4]oxazepino[2,3-c]quinolin-6(7H)-one or (R)-10-((5-chloro- 2-((R)-4,4-difluoro-3-(hydroxymethyl)piperidin-1-yl)pyrimidin- 4-yl)amino)-2-cyclopropyl-7-methyl-1,2,3,4-tetrahydro- [1,4]oxazepino[2,3-c]quinolin-6(7H)-one [Example 15c]”, with 7.55. Regarding `Cn1c(=O)c2c(c3cc(Nc4nc(N5C6CCC5COC6)ncc4F)ccc31)N[C@@H](C1CC1)C(F)(F)CO2` [Example 13j, (S)-10-((2-(3-oxa-8-azabicyclo[3.2.1]octan-8-yl)-5-fluoropyrimidin-4-yl)amino)-2-cyclopropyl-3,3-difluoro-7-methyl-1,2,3,4-tetrahydro-[1,4]oxazepino[2,3-c]quinolin-6(7H)-one], the “HTRF avg pIC50 (1 nM)” value under setting [1] is reported as 8.60. The compound `CC1Nc2c(c(=O)n(C)c3ccc(Nc4ccnc(Cl)c4C#N)cc23)C(=O)OC1C` (stereo not shown) [Example 6d, 2-chloro-4-((2,3,7-trimethyl-5,6-dioxo-1,2,3,5,6,7-hexahydro-[1,4]oxazepino[6,5-c]quinolin-10-yl)amino)nicotinonitrile] gave an IC50 under setting [2] of 214 nM. Turning to `CC1CNC(=O)c2c(c3cc(Nc4ccnc(Cl)c4C#N)ccc3n(C)c2=O)N1` (stereo not shown) [Example 18a, 2-chloro-4-((2,7-dimethyl-5,6-dioxo-2,3,4,5,6,7-hexahydro-1H-[1,4]diazepino[6,5-c]quinolin-10-yl)amino)nicotinonitrile], the “HTRF avg pIC50 (1 nM)” value under setting [1] is 6.58.

`CCC1COc2c(c3cc(Nc4ccnc(Cl)c4C#N)ccc3n(C)c2=O)N1` (stereo not shown) [Example 1l, 2-chloro-4-((2-ethyl-6-methyl-5-oxo-2,3,5,6-tetrahydro-1H-[1,4]oxazino[2,3-c]quinolin-9-yl)amino)nicotinonitrile]: the “HTRF avg pIC50 (1 nM)” value under setting [1] is 6.22. Still for that read-out and setting: to `C[C@@H]1CN(c2ncc(Cl)c(Nc3ccc4c(c3)c3c(c(=O)n4C)C(=O)OC[C@H](C4CC4)N3)n2)C[C@H](C)C1(F)F` [Example 8k, (S)-10-((5-chloro-2-((3S,5R)-4,4-difluoro-3,5-dimethylpiperidin-1-yl)pyrimidin-4-yl)amino)-2-cyclopropyl-7-methyl-2,3-dihydro-[1,4]oxazepino[6,5-c]quinoline-5,6(1H,7H)-dione] belongs 6.38; to `C[C@H]1CN(c2ncc(Cl)c(Nc3ccc4c(c3)c3c(c(=O)n4C)OCC(F)(F)[C@H](C4CC4)N3)n2)CCO1` [Example 12t, (S)-10-((5-chloro-2-((S)-2-methylmorpholino)pyrimidin-4-yl)amino)-2-cyclopropyl-3,3-difluoro-7-methyl-1,2,3,4-tetrahydro-[1,4]oxazepino[2,3-c]quinolin-6(7H)-one], 8.46. The same measure, in the same setting: to “(S)-10-((5-chloro-2-((3R,5S)-3-hydroxy-5- methylpiperidin-1-yl)pyrimidin-4-yl)amino)-2,7-dimethyl-1,2,3,4- tetrahydro-[1,4]oxazepino[2,3-c]quinolin-6(7H)-one or (S)-10-((5- chloro-2-((3S,5R)-3-hydroxy-5-methylpiperidin-1-yl)pyrimidin-4- yl)amino)-2,7-dimethyl-1,2,3,4-tetrahydro- [1,4]oxazepino[2,3-c]quinolin-6(7H)-one [Example 12k]” belongs 7.04; to `CN1CC2CC(C1)N2c1ncc(Cl)c(Nc2ccc3c(c2)c2c(c(=O)n3C)OCC(F)(F)[C@H](C3CC3)N2)n1` [Example 13h, (2S)-10-((5-chloro-2-(3-methyl-3,6-diazabicyclo[3.1.1]heptan-6-yl)pyrimidin-4-yl)amino)-2-cyclopropyl-3,3-difluoro-7-methyl-1,2,3,4-tetrahydro-[1,4]oxazepino[2,3-c]quinolin-6(7H)-one: formic acid (1:1)], 8.43; to `C[C@@H]1CN(c2ncc(Cl)c(Nc3ccc4c(c3)c3c(c(=O)n4C)OCC(F)(F)[C@H](C4CC4)N3)n2)C[C@H](C)C1(F)F` [Example 12o, (S)-10-((5-chloro-2-((3S,5R)-4,4-difluoro-3,5-dimethylpiperidin-1-yl)pyrimidin-4-yl)amino)-2-cyclopropyl-3,3-difluoro-7-methyl-1,2,3,4-tetrahydro-[1,4]oxazepino[2,3-c]quinolin-6(7H)-one], 7.74. Regarding `Cn1c(=O)c2c(c3cc(Nc4ccnc(Cl)c4C#N)ccc31)NC(C)(C)COC2=O` [2-chloro-4-((2,2,7-trimethyl-5,6-dioxo-1,2,3,5,6,7-hexahydro-[1,4]oxazepino[6,5-c]quinolin-10-yl)amino)nicotinonitrile], the IC50 under setting [3] was more than 2500 nM.

Regarding `Cn1c(=O)c2c(c3cc(Nc4ccnc(Cl)c4C#N)ccc31)NC(C1CCC1)CCO2` (stereo not shown) [2-chloro-4-((2-cyclobutyl-7-methyl-6-oxo-1,2,3,4,6,7-hexahydro-[1,4]oxazepino[2,3-c]quinolin-10-yl)amino)nicotinonitrile], the half-inhibitory concentration (IC50) under setting [3] is more than 2500 nM. Regarding `C[C@@H]1C[C@H](O)CN(c2ncc(Cl)c(Nc3ccc4c(c3)c3c(c(=O)n4C)OCC(F)(F)[C@H](C4CC4)N3)n2)C1` (single isomer, unassigned) [Example 13e, (S)-10-((5-chloro-2-((3S,5R)-3-hydroxy-5-methylpiperidin-1-yl)pyrimidin-4-yl)amino)-2-cyclopropyl-3,3-difluoro-7-methyl-1,2,3,4-tetrahydro-[1,4]oxazepino[2,3-c]quinolin-6(7H)-one or (S)-10-((5-chloro-2-((3R,5S)-3-hydroxy-5-methylpiperidin-1-yl)pyrimidin-4-yl)amino)-2-cyclopropyl-3,3-difluoro-7-methyl-1,2,3,4-tetrahydro-[1,4]oxazepino[2,3-c]quinolin-6(7H)-one], the “HTRF avg pIC50 (1 nM)” value under setting [1] was determined as 8.60. Consider `COc1cnc(N2C[C@@H](C)C(F)(F)[C@@H](C)C2)nc1Nc1ccc2c(c1)c1c(c(=O)n2C)OCC[C@H](C2CC2)N1` [(R)-2-cyclopropyl-10-((2-((3S,5R)-4,4-difluoro-3,5-dimethylpiperidin-1-yl)-5-methoxypyrimidin-4-yl)amino)-7-methyl-1,2,3,4-tetrahydro-[1,4]oxazepino[2,3-c]quinolin-6(7H)-one], for which the IC50 under setting [3] is more than 2500 nM.

Turning to `C[C@@H]1CN(c2ncc(Cl)c(Nc3ccc4c(c3)c3c(c(=O)n4C)OCC[C@H](C4CC4)N3)n2)C[C@H](C)[C@H]1F` [Example 12e, (R)-10-((5-chloro-2-((3S,4R,5R)-4-fluoro-3,5-dimethylpiperidin-1-yl)pyrimidin-4-yl)amino)-2-cyclopropyl-7-methyl-1,2,3,4-tetrahydro-[1,4]oxazepino[2,3-c]quinolin-6(7H)-one], the “HTRF avg pIC50 (1 nM)” value under setting [1] came out at 6.93. Same read-out and setting: to `CNCCn1c(=O)c2c(c3cc(Nc4nc(N5C[C@@H](C)C(F)(F)[C@@H](C)C5)ncc4Cl)ccc31)N[C@@H](C1CC1)CCO2` [Example 17a, (R)-10-((5-chloro-2-((3S,5R)-4,4-difluoro-3,5-dimethylpiperidin-1-yl)pyrimidin-4-yl)amino)-2-cyclopropyl-7-(2-(methylamino)ethyl)-1,2,3,4-tetrahydro-[1,4]oxazepino[2,3-c]quinolin-6(7H)-one] belongs 7.15.

Compound `CC1Nc2c(c(=O)n(C)c3ccc(Nc4nc(N5C[C@H](C)C[C@H](C)C5)ncc4Cl)cc23)C(=O)OC1C` (mixture of isomers) [Example 8q, rac-(2S,3R)-10-((5-chloro-2-((3S,5R)-3,5-dimethylpiperidin-1-yl)pyrimidin-4-yl)amino)-2,3,7-trimethyl-2,3-dihydro-[1,4]oxazepino[6,5-c]quinoline-5,6(1H,7H)-dione or rac-(2S,3S)-10-((5-chloro-2-((3S,5R)-3,5-dimethylpiperidin-1-yl)pyrimidin-4-yl)amino)-2,3,7-trimethyl-2,3-dihydro-[1,4]oxazepino[6,5-c]quinoline-5,6(1H,7H)-dione] showed an IC50 under setting [2] of 479 nM. Regarding `C[C@H]1COCc2c(c3cc(Nc4ccnc(Cl)c4C#N)ccc3n(C)c2=O)N1` [Example 9a, (S)-2-chloro-4-((2,7-dimethyl-6-oxo-1,2,3,5,6,7-hexahydro-[1,4]oxazepino[6,5-c]quinolin-10-yl)amino)nicotinonitrile], under setting [1], the “HTRF avg pIC50 (1 nM)” value turned out to be 5.66. Still for that read-out and setting: to `CC1CSc2c(c3cc(Nc4ccnc(Cl)c4C#N)ccc3n(C)c2=O)N1` (stereo not shown) [Example 1t, 2-chloro-4-((2,6-dimethyl-5-oxo-2,3,5,6-tetrahydro-1H-[1,4]thiazino[2,3-c]quinolin-9-yl)amino)nicotinonitrile] belongs 6.00.
